Laboratory results taken from patent US8778951B2, “Heteroaryl compounds and their uses” (Novartis AG, priority 2009, dated 2014).

Target: Cdk9/cyclinT1 (Homo sapiens (Human), UniProt P50750)
Experiment: Cdk9/CyclinT1 IMAP Protocol (fluorescence polarization kinase assay)
Format: biochemical
Conditions: Table 2; generated using one of the two Cdk9/cyclinT1 assays (IMAP or Alpha Screen), not specified which; unit inferred
Protocol: Cdk9/CyclinT1 IMAP Protocol
The biological activity of the compounds of the invention can be determined using the assay described below.
Cdk9/cyclinT1 is purchased from Millipore, cat #14-685. The final total protein concentration in the assay 4 nM. […] The final concentration of peptide substrate is 100 nM. The ATP substrate (Adenosine-5′-triphosphate) is purchased from Roche Diagnostics, cat#1140965. The final concentration of ATP substrate is 6 uM. IMAP (Immobilized Metal Assay for Phosphochemicals) Progressive Binding reagent is purchased from Molecular Devices, cat#R8139. Fluorescence polarization (FP) is used for detection. The 5TAMRA-cdk7tide peptide is phosphorylated by Cdk9/cyclinT1 kinase using the ATP substrate. The Phospho-5TAMRA-cdk7tide peptide substrate is bound to the IMAP Progressive Binding Reagent. The binding of the IMAP Progressive Binding Reagent changes the fluorescence polarization of the 5TAMRA-cdk7tide peptide which is measured at an excitation of 531 nm and FP emission of 595 nm. Assays are carried out in 100 mM Tris, pH=7.2, mM MgCl2, 0.05% NaN3, 0.01% Tween-20, 1 mM dithiothreitol and 2.5% dimethyl sulfoxide. IMAP Progressive Binding Reagent is diluted 1:800 in 100% 1× Solution A from Molecular Devices, cat#R7285.
General protocol is as follows: To 10 ul of cdk9/cyclinT1, 0.5 ul of test compound in dimethyl sulfoxide is added. 5TAMRA-cdk7tide and ATP are mixed. 10 ul of the 5TAMRA-cdk7tide/ATP mix is added to start the reaction. The reaction is allowed to proceed for 4.5 hrs. 60 uL of IMAP Progressive Binding Reagent is added. After >1 hr of incubation, plates are read on the Envision 2101 from Perkin-Elmer. The assay is run in a 384-well format using black Corning plates, cat#3573.

Chain of Cdk9/cyclinT1 (P50750 whole entry): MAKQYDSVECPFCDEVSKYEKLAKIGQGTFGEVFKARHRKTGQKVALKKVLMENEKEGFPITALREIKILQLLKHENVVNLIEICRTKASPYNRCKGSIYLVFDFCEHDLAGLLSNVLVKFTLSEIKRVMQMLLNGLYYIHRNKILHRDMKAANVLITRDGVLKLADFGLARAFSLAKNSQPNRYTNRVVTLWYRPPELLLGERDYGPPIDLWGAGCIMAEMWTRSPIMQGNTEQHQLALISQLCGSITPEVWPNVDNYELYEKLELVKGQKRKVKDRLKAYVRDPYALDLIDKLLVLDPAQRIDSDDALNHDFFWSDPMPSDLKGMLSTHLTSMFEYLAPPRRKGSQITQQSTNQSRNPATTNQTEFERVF
Chain of Cdk9/cyclinT1 (O60563 whole entry partner): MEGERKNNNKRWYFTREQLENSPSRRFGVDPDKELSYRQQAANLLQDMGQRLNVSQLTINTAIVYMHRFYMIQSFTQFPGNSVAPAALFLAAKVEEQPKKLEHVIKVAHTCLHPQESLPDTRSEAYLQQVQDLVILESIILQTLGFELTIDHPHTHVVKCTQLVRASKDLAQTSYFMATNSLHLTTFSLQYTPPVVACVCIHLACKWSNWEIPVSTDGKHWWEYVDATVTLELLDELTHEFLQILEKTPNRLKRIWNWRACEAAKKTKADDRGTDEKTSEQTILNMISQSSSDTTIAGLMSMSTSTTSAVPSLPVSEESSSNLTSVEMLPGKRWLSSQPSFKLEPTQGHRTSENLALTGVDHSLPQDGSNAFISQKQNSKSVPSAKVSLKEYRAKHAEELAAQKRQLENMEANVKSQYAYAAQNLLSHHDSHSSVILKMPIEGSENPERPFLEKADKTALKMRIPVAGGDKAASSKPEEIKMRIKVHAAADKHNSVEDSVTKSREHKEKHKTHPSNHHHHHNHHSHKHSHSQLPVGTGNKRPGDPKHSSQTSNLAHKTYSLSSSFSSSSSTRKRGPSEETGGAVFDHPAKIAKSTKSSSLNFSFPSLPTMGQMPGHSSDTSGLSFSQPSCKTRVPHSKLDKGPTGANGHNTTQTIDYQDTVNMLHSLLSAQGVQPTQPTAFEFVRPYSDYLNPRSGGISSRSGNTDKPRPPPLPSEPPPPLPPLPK

Compound | IC50 [µM]
Fc1cccc(CNc2cccc(-c3cc(N[C@H]4CC[C@H](N5CCCCC5)CC4)ncc3Cl)n2)c1 [Compound 115] | 0.00795
Fc1cccc(CNc2cccc(-c3cc(N[C@H]4CC[C@H](N5CCOCC5)CC4)ncc3Cl)n2)c1 [Compound 116] | 0.00795
NCCNc1cccc(-c2cc(N[C@H]3CC[C@H](O)CC3)ncc2Cl)n1 [Compound 117] | 0.124
NCCCNc1cccc(-c2cc(N[C@H]3CC[C@H](O)CC3)ncc2Cl)n1 [Compound 118] | 0.139
O[C@H]1CC[C@H](Nc2cc(-c3cccc(NCC4CCNCC4)n3)c(Cl)cn2)CC1 [Compound 119] | 0.155
O[C@H]1CC[C@H](Nc2cc(-c3cccc(NCc4cccnc4)n3)c(Cl)cn2)CC1 [Compound 120] | 0.0456
O[C@H]1CC[C@H](Nc2cc(-c3cccc(NC[C@H]4CCCNC4)n3)c(Cl)cn2)CC1 [Compound 121] | 10.5
O[C@H]1CC[C@H](Nc2cc(-c3cccc(NC[C@@H]4CCCNC4)n3)c(Cl)cn2)CC1 [Compound 123] | 0.0428
CC(=O)NCCNc1cccc(-c2cc(N[C@H]3CC[C@H](O)CC3)ncc2Cl)n1 [Compound 124] | 0.116
O[C@H]1CC[C@H](Nc2cc(-c3cccc(NCC4CCOCC4)n3)c(Cl)cn2)CC1 [Compound 126] | 0.0333
O[C@H]1CC[C@H](Nc2cc(-c3cccc(NCC4CCCOC4)n3)c(Cl)cn2)CC1 (stereo partly drawn) [Compound 128] | 0.0334
O[C@H]1CC[C@H](Nc2cc(-c3cccc(NC4CCOCC4)n3)c(Cl)cn2)CC1 [Compound 129] | 0.39
O[C@H]1CC[C@H](Nc2cc(-c3cccc(N4CCOCC4)n3)c(Cl)cn2)CC1 [Compound 131] | 0.47
O[C@H]1CC[C@H](Nc2cc(-c3cccc(NCC4CCCCC4)n3)c(Cl)cn2)CC1 [Compound 132] | 0.0144
O[C@H]1CC[C@H](Nc2cc(-c3cccc(NCc4cc(F)cc(F)c4)n3)c(Cl)cn2)CC1 [Compound 133] | 0.00795
O[C@H]1CC[C@H](Nc2cc(-c3cccc(NCc4ccc(F)cc4)n3)c(Cl)cn2)CC1 [Compound 134] | 0.0105
O[C@H]1CC[C@H](Nc2cc(-c3cccc(NCC4COCCO4)n3)c(Cl)cn2)CC1 (stereo partly drawn) [Compound 135] | 0.142
NC(=O)c1ccc(-c2cc(N[C@H]3CC[C@H](N)CC3)ncc2Cl)nc1NCc1cccc(F)c1 [Compound 138] | 0.522
N[C@H]1CC[C@@H](Nc2cc(-c3cccc(NCc4cccc(F)c4)n3)c(Cl)cn2)CC1 [Compound 139] | 0.0301
Fc1cccc(CNc2cccc(-c3cc(NC4CCCC4)ncc3Cl)n2)c1 [Compound 140] | 0.0126
Fc1cccc(CNc2cccc(-c3cc(NC4CCCCC4)ncc3Cl)n2)c1 [Compound 141] | 0.205
Fc1cccc(CNc2cccc(-c3cc(NC4CCOCC4)ncc3Cl)n2)c1 [Compound 142] | 0.0256

Compound | IC50 [µM]
Fc1cccc(CNc2cccc(-c3cc(NCC4CCOCC4)ncc3Cl)n2)c1 [Compound 143] | 0.0227
NCCCNc1cc(-c2cccc(NCc3cccc(F)c3)n2)c(Cl)cn1 [Compound 144] | 0.0158
OCCCNc1cc(-c2cccc(NCc3cccc(F)c3)n2)c(Cl)cn1 [Compound 146] | 0.00795
COCCCNc1cc(-c2cccc(NCc3cccc(F)c3)n2)c(Cl)cn1 [Compound 147] | 0.0194
Fc1cccc(CNc2cccc(-c3cc(N[C@@H]4CCCOC4)ncc3Cl)n2)c1 [Compound 148] | 15.6
Fc1cccc(CNc2cccc(-c3cc(NC4CCC(F)(F)CC4)ncc3Cl)n2)c1 [Compound 149] | 0.516
Fc1cccc(CNc2cccc(-c3cc(N[C@H]4CCCOC4)ncc3Cl)n2)c1 [Compound 150] | 6.51
N[C@H]1CCCC[C@H]1Nc1cc(-c2cccc(NCc3cccc(F)c3)n2)c(Cl)cn1 [Compound 153] | 1.55
CCOC(=O)c1coc(N[C@H]2CC[C@H](Nc3cc(-c4cccc(NCc5cccc(F)c5)n4)c(Cl)cn3)CC2)n1 [Compound 155, Ethyl 2-(trans-4-(5′-chloro-6-(3-fluorobenzylamino)-2,4′-bipyridin-2′-yl-amino)cyclohexylamino)oxazole-4-carboxylate] | 0.023
COCCN[C@H]1CC[C@H](Nc2cc(-c3cccc(NCc4cccc(F)c4)n3)c(Cl)cn2)CC1 [Compound 157] | 0.0079
CN1CCN([C@H]2CC[C@H](Nc3cc(-c4cccc(NCc5cccc(F)c5)n4)c(Cl)cn3)CC2)CC1 [Compound 158] | 0.011
NCCNc1cc(-c2cccc(NCc3cccc(F)c3)n2)c(Cl)cn1 [Compound 159] | 1.38
OCCNc1cc(-c2cccc(NCc3cccc(F)c3)n2)c(Cl)cn1 [Compound 160] | 0.019
CN(C)CCCCNc1cc(-c2cccc(NCc3cccc(F)c3)n2)c(Cl)cn1 [Compound 161] | 0.026
Fc1cccc(CNc2cccc(-c3cc(NCC4CCNCC4)ncc3Cl)n2)c1 [Compound 162] | 0.014
CN1CCC(CNc2cc(-c3cccc(NCc4cccc(F)c4)n3)c(Cl)cn2)CC1 [Compound 163] | 0.013
Fc1cccc(CNc2cccc(-c3cc(NC[C@H]4CCCNC4)ncc3Cl)n2)c1 [Compound 164] | 0.039
Fc1cccc(CNc2cccc(-c3cc(NCC[C@H]4CCCNC4)ncc3Cl)n2)c1 [Compound 165] | 0.0079
Fc1cccc(CNc2cccc(-c3cc(NC[C@@H]4CCCNC4)ncc3Cl)n2)c1 [Compound 166] | 0.027
Fc1cccc(CNc2cccc(-c3cc(NCC[C@@H]4CCCNC4)ncc3Cl)n2)c1 [Compound 167] | 0.018
Fc1cccc(CNc2cccc(-c3cc(NCCN4CCNCC4)ncc3Cl)n2)c1 [Compound 168] | 0.037
N[C@H]1CC[C@H](CNc2cc(-c3cccc(NCc4cccc(F)c4)n3)c(Cl)cn2)CC1 [Compound 169] | 0.009

Compound | IC50 [µM]
CN1CCN(CCNc2cc(-c3cccc(NCc4cccc(F)c4)n3)c(Cl)cn2)CC1 [Compound 170] | 0.044
Fc1cccc(CNc2cccc(-c3cc(NCCN4CCOCC4)ncc3Cl)n2)c1 [Compound 171] | 0.218
CC(C)Nc1cc(-c2cccc(NCc3cccc(F)c3)n2)c(Cl)cn1 [Compound 172] | 0.015
CCCCNc1cc(-c2cccc(NCc3cccc(F)c3)n2)c(Cl)cn1 [Compound 173] | 0.062
Fc1cccc(CNc2cccc(-c3cc(NCCC4CCOCC4)ncc3Cl)n2)c1 [Compound 174] | 0.029
Fc1cccc(CNc2cccc(-c3cc(NCCc4cccnc4)ncc3Cl)n2)c1 [Compound 175] | 0.024
CNc1cc(-c2cccc(NCc3cccc(F)c3)n2)c(Cl)cn1 [Compound 178, 5′-chloro-N6-(3-fluorobenzyl)-N2′-methyl-2,4′-bipyridine-2′,6-diamine] | 0.103
Nc1cc(-c2cccc(NCc3cccc(F)c3)n2)c(Cl)cn1 [Compound 179] | 0.544
COc1cnc(N[C@H]2CC[C@H](N)CC2)cc1-c1cccc(NCc2cccc(F)c2)n1 [Compound 180, N2′-(trans-4-aminocyclohexyl)-N6-(3-fluorobenzyl)-5′-methoxy-2,4′-bipyridine-2′,6-diamine] | 0.0121
OC[C@H]1CC[C@H](Nc2cc(-c3cccc(NCc4cccc(F)c4)n3)c(Cl)cn2)CC1 [Compound 181] | 0.00794
O[C@H]1CC[C@@H](Nc2cc(-c3cccc(NCc4cccc(F)c4)n3)c(Cl)cn2)CC1 [Compound 182] | 0.0211
O[C@H]1CC[C@@H](Nc2cc(-c3cccc(NCc4cccc(F)c4)n3)c(Cl)cn2)C1 [Compound 183] | 0.00794
O[C@@H]1CC[C@H](Nc2cc(-c3cccc(NCc4cccc(F)c4)n3)c(Cl)cn2)C1 [Compound 184] | 0.00911
OCCCCNc1cc(-c2cccc(NCc3cccc(F)c3)n2)c(Cl)cn1 [Compound 186] | 0.00794
NCCCCNc1cc(-c2cccc(NCc3cc(F)cc(F)c3)n2)c(Cl)cn1 [Compound 188] | 0.00794
OCCCNc1cc(-c2cccc(NCc3cc(F)cc(F)c3)n2)c(Cl)cn1 [Compound 189] | 0.00794
COC[C@H]1CC[C@H](Nc2cc(-c3cccc(NCc4cccc(F)c4)n3)c(Cl)cn2)CC1 [Compound 190] | 0.1
N[C@@H]1CC[C@@H](Nc2cc(-c3cccc(NCc4cccc(F)c4)n3)c(Cl)cn2)C1 [Compound 191, N2′-((1R,3R)-3-aminocyclopentyl)-5′-chloro-N6-(3-fluorobenzyl)-2,4′-bipyridine-2′,6-diamine] | 0.00794
N[C@H]1CC[C@H](Nc2cc(-c3cccc(NCc4cccc(F)c4)n3)c(Cl)cn2)C1 [Compound 192] | 0.00794
COCCN[C@H]1CC[C@H](Nc2cc(-c3cccc(NCc4cc(F)cc(F)c4)n3)c(Cl)cn2)CC1 [Compound 193] | 0.00794
CO[C@H]1CC[C@H](Nc2cc(-c3cccc(NCc4cccc(F)c4)n3)c(Cl)cn2)CC1 [Compound 194] | 0.0481
NCC(O)CNc1cc(-c2cccc(NCc3cccc(F)c3)n2)c(Cl)cn1 (stereo not drawn) [Compound 195] | 0.0356
